The target in assay [1] is full-length human recombinant BTK (Homo sapiens (Human), UniProt Q06187). Kind of assay: Inhibition of Btk enzymatic activity (biochemical enzyme assay, Caliper). Particulars: 30° C., 60 minutes. The protocol: The inhibitory activity of the present compounds against Btk was assessed in a biochemical enzyme assay. Assay plates in 384 well format were prepared with 8-point serial dilutions for the test compounds on a Thermo CatX workstation equipped with a Innovadyne Nanodrop Express. The assay plates were prepared by addition of 50 nl per well of compound solution in 90% DMSO. The kinase reactions were started by stepwise addition of 4.5 μl per well of peptide/ATP-solution (4 μM FITC-Ahx-[…]-NH2, 164 μM ATP) in kinase buffer (50 mM HEPES, pH 7.5, 1 mM DTT, 0.02% Tween20, 0.02% BSA, 0.6% DMSO, 10 mM beta-glycerophosphate, and 10 μM sodium orthovanadate, 18 mM MgCl2, 1 mM MnCl2) and 4.5 μl per well of enzyme solution (6.4 nM full-length human recombinant BTK) in kinase buffer. Kinase reactions were incubated at 30° C. for 60 minutes and subsequently terminated by addition of 16 μl per well of stop solution (100 mM HEPES pH 7.5, 5% DMSO, 0.1% Caliper coating reagent, 10 mM EDTA, and 0.015% Brij35). Kinase reactions were analyzed on a Caliper LC3000 workstation by separating phosphorylated and unphosphorylated peptides and kinase activities were calculated from the amounts of newly formed phospho-peptide. Inhibition data were calculated by comparison to control reactions without enzyme (100% inhibition) and without inhibitors (0% inhibition). The concentration of inhibitor required for 50% inhibition (IC50) was calculated from the inhibition in response to inhibitor concentrations.

Assay [2] addresses Btk (Rattus norvegicus, UniProt Q5S255). Kind of assay: Inhibition of Btk activity in blood: in vitro B cell activation assay (CD86) in rat whole blood. The format is cell-based. The conditions noted are these: Lewis rat whole blood diluted to 50%, anti-rat IgM + IL-4, CD86 on CD45RA positive B cells, 24 hours. The procedure:
Alternatively, the inhibitory activity of the present compounds in blood was assessed in the following in vitro B cell activation assay. Whole blood was collected from the abdominal aorta of anaesthetized adult male Lewis rats and was anticoagulated with 100 U/ml sodium heparin. Blood was then diluted to 50% with high glucose DMEM (Amimed) supplemented with 100 U/ml penicillin, […] streptomycin, 2 mM L-glutamin, 50 mg/ml dextran 40 and 5% FCS (Fetaclone I, Gibco). Then, 190 μl prediluted blood was mixed in 96 well U-bottomed microtiter plates (Nunc) with 10 μl of serial dilutions of test compounds in DMSO. Cultures were incubated at 37° C., 5% CO2 for 1 hour, then 30 μl of rat IL-4 (Beckton-Dickinson, final concentration 5 ng/ml) and goat anti-rat IgM (Serotec, final concentration 15 ug/ml) were added and the cultures were incubated for 24 hours. Activation of B cells was measured by flow cytometry after staining for the B cell subset with PE-Cy5-labeled anti-ratCD45RA (Beckton-Dickinson) and for the activation marker CD86 (PE-labeled anti-rat CD86 (Beckton-Dickinson). All staining procedures were performed at RT for 30 min in the dark in 96-deep well V-bottomed microtiter plates (Corning) with BD Lysing Solution (Beckton-Dickinson). Cytometric data was acquired on a FACScalibur flow cytometer (BD Biosciences) and the subpopulation of lymphocytes were gated according to size and granularity and further analyzed for expression of CD45RA and the activation markers. Data for the inhibition of B cell activation were calculated from the percentage of cells positively stained for activation markers within the CD45RA positive population. Inhibition data were calculated by comparison to control cultures without anti-IgM and IL-4 (100% inhibition) and without inhibitors (0% inhibition). The concentration of inhibitor required for 50% inhibition (IC50) was calculated from the inhibition in response to inhibitor concentrations.

Assay [3] addresses Btk (Homo sapiens (Human), UniProt Q06187). As to the kind of experiment: Inhibition of cellular Btk activity: Btk-dependent FcG receptor-induced IL-8 secretion in differentiated THP1 cells. Particulars: IgG-stimulated IL-8 secretion, 24 hours. Format: cell-based. The procedure:
Alternatively, the present compounds might also be assessed for their capacity to inhibit Btk-dependent FcG receptor-induced IL-8 secretion in human cells. The human myeloid leukemia THP1 cell line (ATCC TIB202) was grown in RPMI 1640 medium supplemented with 10% FCS and 15 nM 1, 25-dihydroxy Vitamin D3 during 4 days before use to induced myeloid differentiation. A sufficient number of tissue-culture grade 384-well plates was coated with human IgG of unknown specificity by incubating overnight at 4° C. with 40 μl/well of a 50 μg/ml IgG solution in PBS. On the day of the experiment, plates were washed 5 times with 80 μl water on a Molecular Devices Aquamax DW4 plate washer. Solutions of the test compounds in 90% DMSO were added to each well on a Hamilton Microlab Star liquid handling station to 40 μl/well tissue culture medium and the total DMSO concentration was adjusted to 0.1%. Differentiated THP1 cells were then added in 40 μl/well to reach a final density of 5'000 cells/well in 80 μl culture medium. After 24 hours, IL-8 secretion was measured in the supernatant by the IL-8 HTRF assay following the protocol of the vendor (CisBio international). Inhibition data were calculated by comparison to control cultures without IgG stimulus enzyme (100% inhibition) and without inhibitors (0% inhibition). The concentration of inhibitor required for 50% inhibition (IC50) was calculated from the inhibition in response to inhibitor concentrations.

Sequence of Btk (Homo sapiens (Human), UniProt Q06187) (Q06187 whole entry): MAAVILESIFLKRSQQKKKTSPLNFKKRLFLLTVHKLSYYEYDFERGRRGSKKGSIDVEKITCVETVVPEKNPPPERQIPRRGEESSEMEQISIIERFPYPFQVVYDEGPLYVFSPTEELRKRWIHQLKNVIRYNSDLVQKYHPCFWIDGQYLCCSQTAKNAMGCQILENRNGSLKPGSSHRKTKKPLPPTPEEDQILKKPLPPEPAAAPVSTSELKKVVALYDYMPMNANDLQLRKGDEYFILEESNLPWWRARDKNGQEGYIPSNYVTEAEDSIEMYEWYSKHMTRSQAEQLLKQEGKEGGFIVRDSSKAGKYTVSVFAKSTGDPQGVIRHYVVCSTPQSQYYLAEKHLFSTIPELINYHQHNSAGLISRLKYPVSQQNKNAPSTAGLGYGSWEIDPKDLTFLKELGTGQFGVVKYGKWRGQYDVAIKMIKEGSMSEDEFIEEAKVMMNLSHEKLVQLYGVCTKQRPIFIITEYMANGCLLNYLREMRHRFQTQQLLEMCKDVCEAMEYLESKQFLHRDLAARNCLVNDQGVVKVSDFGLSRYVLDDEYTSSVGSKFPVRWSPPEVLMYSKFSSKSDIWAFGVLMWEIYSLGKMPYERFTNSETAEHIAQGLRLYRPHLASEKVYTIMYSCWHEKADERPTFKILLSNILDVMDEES
Sequence of full-length human recombinant BTK (Q06187 whole entry): as above
Sequence of Btk (Rattus norvegicus, UniProt Q5S255) (Q5S255 1-660): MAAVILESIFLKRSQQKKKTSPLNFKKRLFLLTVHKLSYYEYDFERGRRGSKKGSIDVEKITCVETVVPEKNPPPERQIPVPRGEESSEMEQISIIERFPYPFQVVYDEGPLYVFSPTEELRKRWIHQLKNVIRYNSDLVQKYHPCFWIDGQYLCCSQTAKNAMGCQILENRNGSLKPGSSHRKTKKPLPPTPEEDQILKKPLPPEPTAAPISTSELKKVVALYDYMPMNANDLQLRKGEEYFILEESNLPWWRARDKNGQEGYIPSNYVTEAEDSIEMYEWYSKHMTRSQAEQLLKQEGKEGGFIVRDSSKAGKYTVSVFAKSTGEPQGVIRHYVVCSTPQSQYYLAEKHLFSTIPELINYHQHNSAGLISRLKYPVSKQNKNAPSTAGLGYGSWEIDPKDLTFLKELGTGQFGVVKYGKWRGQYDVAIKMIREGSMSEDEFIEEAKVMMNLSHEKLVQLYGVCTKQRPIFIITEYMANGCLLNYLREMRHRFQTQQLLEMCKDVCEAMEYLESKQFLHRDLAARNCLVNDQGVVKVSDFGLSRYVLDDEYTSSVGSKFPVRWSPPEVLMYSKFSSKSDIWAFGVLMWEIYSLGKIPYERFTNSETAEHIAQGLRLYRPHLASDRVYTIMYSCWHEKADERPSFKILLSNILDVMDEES

As to `CN(C)C(=O)N1CC=C(c2cc3c(-c4cccc(NC(=O)c5ccc(C6CC6)cc5)c4CO)ncnc3[nH]2)CC1` [Example 17, 4-{4-[3-(4-Cyclopropyl-benzoylamino)-2-hydroxymethyl-phenyl]-7H-pyrrolo[2,3-d]pyrimidin-6-yl}-3,6-dihydro-2H-pyridine-1-carboxylic acid dimethylamide], the IC50 turned out to be 1 nM in assay [1] and 100 nM on Btk [2]. For `Cc1c(NC(=O)c2ccc3c(c2)OCC3(C)C)cc(F)cc1-c1ncnc2[nH]c(C3=CCN(C(=O)N(C)C)CC3)cc12` [Example 2, 4-(4-{3-[(3,3-Dimethyl-2,3-dihydro-benzofuran-6-carbonyl)-amino]-5-fluoro-2-methyl-phenyl}-7H-pyrrolo[2′3-d]pyrimidin-6-yl)-3,6-dihydro-2H-pyridine-1-carboxylic acid dimethylamide] the same measures were 4 nM and 72 nM. Turning to `Cc1c(NC(=O)c2cc3c(s2)CCC(C)C3)cc(F)cc1-c1ncnc2[nH]c(C3=CCN(C(=O)N(C)C)CC3)cc12` (stereo not drawn) [Example 3, 4-(4-{5-Fluoro-2-methyl-3-[(5-methyl-4,5,6,7-tetrahydro-benzo[b]thiophene-2-carbonyl)-amino]-phenyl}-7H-pyrrolo[2′3-d]pyrimidin-6-yl)-3,6-dihydro-2H-pyridine-1-carboxylic acid dimethylamide], the results for the IC50 (in assay [1]; on Btk [3]) were 5 nM and 27 nM, respectively.

`Cc1c(NC(=O)c2ccc(C(C)(C)CO)cc2)cc(F)cc1-c1ncnc2[nH]c(C3=CCN(C(=O)N(C)C)CC3)cc12` [Example 6, 4-(4-{5-Fluoro-3-[4-(2-hydroxy-1,1-dimethyl-ethyl)-benzoylamino]-2-methyl-phenyl}-7H-pyrrolo[2,3-d]pyrimidin-6-yl)-3,6-dihydro-2H-pyridine-1-carboxylic acid dimethylamide]: the IC50 in assay [1] worked out at 2 nM; on Btk [2], 112 nM.

As for `CC(C)(C)c1ccc(C(=O)Nc2cccc(-c3ncnc4[nH]c(C5=CCN(C(=O)CF)CC5)cc34)c2CO)cc1` [Example 38, 4-tert-Butyl-N-(3-{6-[1-(2 fluoro-acetyl)-1,2,3,6-tetrahydro-pyridin-4-yl]-7H-pyrrolo[2,3-d]pyrimidin-4-yl}-2-hydroxymethyl-phenyl)-benzamide], the IC50 in assay [1] amounted to 27 nM; at Btk [3], 20 nM. For the compound `Cc1c(NC(=O)N2CC(OC(C)C)C2)cc(F)cc1-c1ncnc2[nH]c(C3=CCN(C(=O)N(C)C)CC3)cc12` [Example 58, 4-(4-{5-Fluoro-3-[(3-isopropoxy-azetidine-1-carbonyl)-amino]-2-methyl-phenyl}-7H-pyrrolo[2,3-d]pyrimidin-6-yl)-3,6-dihydro-2H-pyridine-1-carboxylic acid dimethylamide], the IC50 in assay [1] was found to be 16 nM; at Btk [2], 179 nM.

With `CN(C)C(=O)N1CC=C(c2cc3c(-c4cccc(NC(=O)c5ccc(C(C)(C)O)cc5F)c4CO)ncnc3[nH]2)CC1` [Example 16, 4-(4-{3-[2-Fluoro-4-(1-hydroxy-1-methyl-ethyl)-benzoylamino]-2-hydroxymethyl-phenyl}-7H-pyrrolo[2,3-d]pyrimidin-6-yl)-3,6-dihydro-2H-pyridine-1-carboxylic acid dimethylamide], the values for the IC50 (in assay [1]; on Btk [3]) were 2 nM and 69 nM, respectively. On to `Cc1c(NC(=O)c2ccc(C3CC3)cc2)cc(F)cc1-c1ncnc2[nH]c(C3=CCN(C(=O)CO)CC3)cc12` [Example 32, 4-Cyclopropyl-N-(5-fluoro-3-{6-[1-(2-hydroxy-actyl)-1,2,3,6-tetrahydro-pyridin-4-yl]-7H-pyrrolo[2,3-d]pyrimidin-4-yl}-2-methyl-phenyl)benzamide], for which the IC50 stood at 7 nM in assay [1] and 414 nM at Btk [2]. `CN(C)C(=O)N1CC=C(c2cc3c(-c4ccc(F)c(NC(=O)c5ccc(C(C)(C)CO)cc5)c4)ncnc3[nH]2)CC1` [Example 21, 4-(4-{4-Fluoro-3-[4-(2-hydroxy-1,1-dimethyl-ethyl)-benzoylamino]-phenyl}-7H-pyrrolo[2,3-d]pyrimidin-6-yl)-3,6-dihydro-2H-pyridine-1-carboxylic acid dimethylamide]: the IC50 in assay [1] came out at 6 nM. Consider `Cc1c(NC(=O)N2CC(OC(C)(C)C)C2)cc(F)cc1-c1ncnc2[nH]c(C3=CCN(C(=O)N(C)C)CC3)cc12` [Example 57, 4-(4-{3-[(3-tert-Butoxy-azetidine-1-carbonyl)-amino]-5-fluoro-2-methyl-phenyl}-7H-pyrrolo[2,3-d]pyrimidin-6-yl)-3,6-dihydro-2H-pyridine-1-carboxylic acid dimethylamide], for which the IC50 in assay [1] was 7 nM. For `CC(=O)OCC(=O)N1CC=C(c2cc3c(-c4cc(F)cc(NC(=O)c5ccc(C6CC6)cc5)c4C)ncnc3[nH]2)CC1` [Example 31, Acetic acid 2-(4-{4-[3-(4 cyclopropyl-benzoylamino)-5-fluoro-2-methyl-phenyl]-7H-pyrrolo[2,3-d]pyrimidin-6-yl}-3,6-dihydro-2H-pyridin-1-yl)-2-oxo-ethyl ester], the IC50 in assay [1] was found to be 3 nM. In the case of `Cc1c(NC(=O)N2CC(OC(C(F)(F)F)C(F)(F)F)C2)cc(F)cc1-c1ncnc2[nH]c(C3=CCN(C(=O)N(C)C)CC3)cc12` [Example 60, 4-[4-(5-Fluoro-2-methyl-3-{[3-(2,2,2-trifluoro-1-trifluoromethyl-ethoxy)-azetidine-1-carbonyl]-amino}-phenyl)-7H-pyrrolo[2,3-d]pyrimidin-6-yl]-3,6-dihydro-2H-pyridine-1-carboxylic acid dimethylamide], the IC50 in assay [1] was determined as 8 nM. `CN(C)C(=O)N1CC=C(c2cc3c(-c4ccc(F)c(NC(=O)N5CC(OC(C)(C)C)C5)c4)ncnc3[nH]2)CC1` [Example 62, 4-(4-{3-[(3-tert-Butoxy-azetidine-1-carbonyl)-amino]-4-fluoro-phenyl}-7H-pyrrolo[2,3-d]pyrimidin-6-yl)-3,6-dihydro-2H-pyridine-1-carboxylic acid dimethylamide]: the IC50 in assay [1] worked out at 2 nM; against Btk [3], 71 nM.

For the compound `Cc1c(NC(=O)c2ccc(S(F)(F)(F)(F)F)cc2)cc(F)cc1-c1ncnc2[nH]c(C3=CCN(C(=O)N4CCCC4)CC3)cc12` [Example 34, N-(5-Fluoro-2-methyl-3-{6-[1-(pyrrolidine-1-carbonyl)-1,2,3,6-tetrahydro-pyridin-4-yl]-7H-pyrrolo[2,3-d]pyrimidin-4-yl}-phenyl)-4-(pentafluoro-sulfanyl)-benzamide], the IC50 in assay [1] was found to be 34 nM.

`CC(C)(C)c1ccc(C(=O)Nc2cccc(-c3ncnc4[nH]c(C5=CCC6(CC5)OCCO6)cc34)c2CO)cc1` [Example 54, 4-tert-Butyl-N-{3-[6-(1,4-dioxa-spiro[4.5]dec-7-en-8-yl)-7H-pyrrolo[2,3-d]pyrimidin-4-yl]-2-hydroxymethyl-phenyl}-benzamide]: the IC50 in assay [1] came to 24 nM.

(Values after patent US9233111B2, “Pyrrolo pyrimidine derivatives” (NOVARTIS AG, priority 2011, dated 2016).)
